Test results published in ChEMBL document CHEMBL1145142, “Synthesis and activity of 8-substituted benzo[c]quinolizin-3-ones as dual inhibitors of human 5alpha-reductases 1 and 2” (Bioorg Med Chem Lett, 2005).
pIC50: −log10 of the molar value.

What was measured:
Format in all cases: cell-based
[1] = target: T1, 3-oxo-5-alpha-steroid 4-dehydrogenase 2 (Homo sapiens, UniProt P31213); assay: Inhibitory concentration against human steroid 5-alpha-reductase 2 receptor expressed in CHO 1829 cells
T1 sequence (P31213 whole entry): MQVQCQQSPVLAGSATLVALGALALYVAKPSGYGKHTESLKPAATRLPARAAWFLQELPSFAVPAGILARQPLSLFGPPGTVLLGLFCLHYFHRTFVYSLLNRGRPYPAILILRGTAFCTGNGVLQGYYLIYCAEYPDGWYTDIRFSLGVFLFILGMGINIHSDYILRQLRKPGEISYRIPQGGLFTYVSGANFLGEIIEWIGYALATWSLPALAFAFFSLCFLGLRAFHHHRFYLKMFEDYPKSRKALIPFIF

[2] = target: T2, 3-oxo-5-alpha-steroid 4-dehydrogenase 1 (Homo sapiens, UniProt P18405); assay: Inhibitory concentration against human steroid 5-alpha-reductase I receptor expressed in CHO 1827 cells
T2 sequence (P18405 whole entry): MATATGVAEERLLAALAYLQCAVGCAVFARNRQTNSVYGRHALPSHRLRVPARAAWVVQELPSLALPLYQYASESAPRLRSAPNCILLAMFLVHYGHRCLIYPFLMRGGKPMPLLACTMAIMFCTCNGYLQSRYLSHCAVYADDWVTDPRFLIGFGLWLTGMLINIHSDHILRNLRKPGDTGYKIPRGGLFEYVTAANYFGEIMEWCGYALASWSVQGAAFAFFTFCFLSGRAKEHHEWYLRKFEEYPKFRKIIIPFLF

[3] = target: T1, 3-oxo-5-alpha-steroid 4-dehydrogenase 2; assay: Inhibitory concentration against human steroid 5-alpha-reductase 2 receptor expressed in CHO 1829 cells; la= low activity
[4] = target: T2, 3-oxo-5-alpha-steroid 4-dehydrogenase 1; assay: Inhibitory concentration against human steroid 5-alpha-reductase I receptor expressed in CHO 1827 cells; la= low activity

SMILES	pIC50 [1]	pIC50 [2]	IC50 [3]	IC50 [4]
CC1=C2CCc3cc(C(=O)OCc4ccccc4)ccc3N2CCC1=O	5.02	–	–	–
CC1=C2CCc3cc(C(=O)Oc4ccc(C)cc4)ccc3N2CCC1=O	6.26	6.99	–	–
COc1ccc(OC(=O)c2ccc3c(c2)CCC2=C(C)C(=O)CCN23)cc1	5.92	6.94	–	–
CCOC(=O)c1ccc2c(c1)CCC1=C(C)C(=O)CCN12	5.32	–	–	–
CC1=C2CCc3cc(C(=O)N(C(C)C)C(C)C)ccc3N2CCC1=O	–	–	Low activity	Low activity
COC(=O)c1ccc2c(c1)CCC1=C(C)C(=O)CCN12	5.68	–	–	–
CC1=C2CCc3cc(C(=O)Oc4ccc(C(=O)NC(C)(C)C)cc4)ccc3N2CCC1=O	–	6.65	Low activity	–
CC1=C2CCc3cc(C(=O)Oc4ccc(F)cc4)ccc3N2CCC1=O	6.92	7.03	–	–
CC1=C2CCc3cc(C(=O)OC(C)(C)C)ccc3N2CCC1=O	–	–	Low activity	–
CC(=O)Nc1ccc(OC(=O)c2ccc3c(c2)CCC2=C(C)C(=O)CCN23)cc1	6.59	6.15	–	–
CC1=C2CCc3cc(C(=O)OCCCO)ccc3N2CCC1=O	–	5.16	Low activity	–
CC1=C2CCc3cc(C(=O)Oc4ccc(C(C)(C)C)cc4)ccc3N2CCC1=O	–	–	Low activity	–
COC(=O)c1ccc(OC(=O)c2ccc3c(c2)CCC2=C(C)C(=O)CCN23)cc1	6.23	6.89	–	–
COC(=O)c1cccc(OC(=O)c2ccc3c(c2)CCC2=C(C)C(=O)CCN23)c1	6.33	–	–	–
CC1=C2CCc3cc(C(=O)Oc4ccc(Cl)cc4)ccc3N2CCC1=O	–	5.85	Low activity	–
CC1=C2CCc3cc(C(=O)Nc4ccc(C)cc4)ccc3N2CCC1=O	–	6.00	Low activity	–
CC1=C2CCc3cc(C(=O)Oc4cccc(C(F)(F)F)c4)ccc3N2CCC1=O	6.00	6.57	–	–
CC1=C2CCc3cc(C(=O)Oc4ccccc4C(F)(F)F)ccc3N2CCC1=O	6.43	7.38	–	–
CC1=C2CCc3cc(C(=O)Oc4ccc(N)cc4)ccc3N2CCC1=O	6.10	6.57	–	–
CC1=C2CCc3cc(C(=O)Oc4cccc(F)c4)ccc3N2CCC1=O	6.87	6.80	–	–
CC1=C2CCc3cc(C(=O)Oc4ccccc4F)ccc3N2CCC1=O	6.78	6.86	–	–
CC1=C2CCc3cc(C(=O)OC(C)C)ccc3N2CCC1=O	> 7.30	–	–	–
CCN(CC)C(=O)c1ccc(OC(=O)c2ccc3c(c2)CCC2=C(C)C(=O)CCN23)cc1	6.43	6.33	–	–
CC1=C2CCc3cc(C(=O)Oc4ccc(C(N)=O)cc4)ccc3N2CCC1=O	6.51	6.44	–	–
CCN(CC)C(=O)c1ccc2c(c1)CCC1=C(C)C(=O)CCN12	–	–	Low activity	Low activity
CC1=C2CCc3cc(C(=O)Oc4ccccc4)ccc3N2CCC1=O	6.53	–	–	–
CC1=C2CCc3cc(C(=O)NC(C)(C)C)ccc3N2CCC1=O	–	–	Low activity	Low activity
CCOc1ccc(OC(=O)c2ccc3c(c2)CCC2=C(C)C(=O)CCN23)cc1	5.48	6.68	–	–
CC1=C2CCc3cc(C(=O)Oc4ccc(C(F)(F)F)cc4)ccc3N2CCC1=O	5.92	6.83	–	–
CCCNC(=O)c1ccc(OC(=O)c2ccc3c(c2)CCC2=C(C)C(=O)CCN23)cc1	6.18	6.57	–	–
